Test [1] concerns the target butyrylcholine esterase (BuChE) (Homo sapiens, UniProt P06276). The experiment in a line: Butyrylcholine esterase assay. Particulars: compound concentration 10 uM; human serum enzyme; 560 uM S-butyrylthiocholine. The test is classed as biochemical. Here is the method:
Butyrylcholine Esterase Assay.
The assay was conducted as follows [Ellman G. L., Courtney K. D., Andres Jr. V., and Featherstone R. N. A new and rapid colorimetric determination of acetylcholinesterase activity.

In a further test the target is T1, 5-HT6 Receptor (Homo sapiens, UniProt P50406).
T1 construct: expressed in transfected cells; host or cells: HeLa cells
T1 sequence (P50406 whole entry): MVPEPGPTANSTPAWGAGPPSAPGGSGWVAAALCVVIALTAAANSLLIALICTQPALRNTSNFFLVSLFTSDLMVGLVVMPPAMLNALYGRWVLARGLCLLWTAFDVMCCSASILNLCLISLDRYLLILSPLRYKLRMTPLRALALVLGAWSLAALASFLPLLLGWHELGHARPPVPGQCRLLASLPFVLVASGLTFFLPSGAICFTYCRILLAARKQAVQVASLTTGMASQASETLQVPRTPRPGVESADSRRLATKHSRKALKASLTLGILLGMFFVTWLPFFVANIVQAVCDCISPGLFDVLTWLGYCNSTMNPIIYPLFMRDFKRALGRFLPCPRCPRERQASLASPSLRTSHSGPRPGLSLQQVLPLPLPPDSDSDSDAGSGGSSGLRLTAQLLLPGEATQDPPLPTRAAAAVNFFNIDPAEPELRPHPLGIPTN
Kind of test: Binding with 5-HT6 receptor (radioligand binding). Particulars: compound concentration 10 uM; ligand 1.5 nM [3H]-LSD. Here is the method:
Binding with 5-HT6 Receptor.
The assay was conducted as follows [Monsma F. J., Jr, Shen Y., Ward R. P., Hamblin M. W., and Sibley D. R. Cloning and Expression of a novel serotonin receptor with high affinity for tricyclic psychotropic drugs. Mol. Pharmacol. 1993, 43: 320-327]: • Receptor source: human recombinant HeLa cells; • Ligand: 1.5 nM [3H]-lysergic acid diethylamide (LSD); • Vehicle: 1% DMSO; • Incubation time: 2 hours at 37 C; • Incubation buffer: 50 mM Tris-HCl, pH 7.4, 150 mM NaCl, 2 mM ascorbic acid, 0.001% BSA; • Compound concentration: 10 uM; • Non-specific ligand: 5 uM serotonin (5-HT); • Quantitation method: radioligand binding

For a further test, the system named is C57BL/6 mice. The experiment in a line: Object recognition test, recognition of a new localization of an object. The test is classed as in vivo. The settings on record: for object exploration / discrimination ratio compared with control: 0.02 mg/kg; for time exploring the object in a familiar localization / time exploring the object in a new localization: 0.1 mg/kg, tested 48 hours after training. From the text: Object recognition test as a method for research on the effects of some exemplary compounds on memory in mice.
The object recognition test is based on a spontaneous behavior of rats and mice to explore a novel object or a new localization of an object more often than a familiar one. This test was first developed for rats [Ennaceur A., Delacour J. A new one-trial test for neurobiological studies of memory in rats. 1: behavioral data. Behav. Brain Res. 1988; 31:47-59]. Thereafter, various researchers have shown that the test is also suitable for assessing memory performance in mice [e.g., Dodart J. C., Mathis C., Ungerer A. Scopolamine-induced deficits in a two-trial object recognition task in mice. NeuroReport 8 (1997), pp. 1173-1178]. The object recognition test is divided into two tests: a test of recognition of a new localization of an object that is used for research on spatial memory, and a test of recognition of a new object that is used for research on non-spatial memory.
Twenty (20) to twenty-two (22) month-old female mice (old mice) and four (4) to six (6) month-old male mice (young mice) of C57BL/6 strain were used. The animals were housed five per cage under a normal light cycle (12×12, light on at 8:00 AM) and with free access to water and food. The training box was made of white, opaque organic glass with dimensions of 48×38×30 cm. Two kinds of plastic items were used as objects for recognition: a white cylinder (d=4 cm, h=2.8 cm), and a black, three-edged prism (2.5×2.5×3.5 cm and h=3.4 cm). Care was taken to avoid olfactory stimuli by cleaning the objects and box carefully. Two (2) to three (3) min before the mice were placed into the box, the objects and the box were wiped with 85% ethanol. Animals were always placed in the middle of the training box.
Referring again to FIGS. 1A-1B and FIGS. 2A-2C, the mice were injected intraperitoneally with some of the various exemplary compounds shown in the figures, or with the vehicle (solvent) alone in the same volume, one hour before the recall trial.
On the first day of the experiment, the mice were handled in the research room for 20 to 30 min for acclimatization. Then, one by one, the mice were habituated to the training box by being placed into the box without any object for 20 min to explore the box, and were returned to their cages.
On the next day, the same mice were brought into a research room. After 20-30 min of acclimatization, each mouse was placed into an empty box for one minute. Then, the mouse was removed from the training box. Two identical objects (white cylinders) were placed approximately 5 inches distant from two adjacent corners of the box and immediately an animal was returned to the box. The time of exploring of each individual object was registered separately with the help of two electronic stop-watches (to within 0.1 sec). The behavior of each animal was observed through a mirror. Exploration was operationally defined as directing the nose to the object from a distance less than 2 cm, or touching the object with the nose. The duration of the training trial was 5, 10, 15 and 20 minutes.
[…] Testing was performed the same way as training, but one of the two familiar objects was changed to the new object (black prism).
When the recognition of a new localization of an object improved, the same experimental sequence was performed, except that only the localization of one of the familiar objects was changed in the testing session.
A significant variability of object exploration times between animals was measured. The ratio of object-exploration times was calculated as follows: each object-exploration time was divided by the sum of both of the object-exploration times during the same testing session, and expressed in percent: (tnew×100%)/(tfamiliar+tnew)
The data were analyzed using a one-way analysis of variance followed by a Student's t-test.

For the next test, the target named is NMDA receptor. The settings on record: read-out: NMDA receptor inhibition constant (Ki); cited from earlier work.
Test [2] relates to mitochondrial permeability transition pores. The settings on record: MPP(+) and beta-amyloid fragment 25-35; cited from earlier work.

Sequence of butyrylcholine esterase (BuChE) (P06276 29-602): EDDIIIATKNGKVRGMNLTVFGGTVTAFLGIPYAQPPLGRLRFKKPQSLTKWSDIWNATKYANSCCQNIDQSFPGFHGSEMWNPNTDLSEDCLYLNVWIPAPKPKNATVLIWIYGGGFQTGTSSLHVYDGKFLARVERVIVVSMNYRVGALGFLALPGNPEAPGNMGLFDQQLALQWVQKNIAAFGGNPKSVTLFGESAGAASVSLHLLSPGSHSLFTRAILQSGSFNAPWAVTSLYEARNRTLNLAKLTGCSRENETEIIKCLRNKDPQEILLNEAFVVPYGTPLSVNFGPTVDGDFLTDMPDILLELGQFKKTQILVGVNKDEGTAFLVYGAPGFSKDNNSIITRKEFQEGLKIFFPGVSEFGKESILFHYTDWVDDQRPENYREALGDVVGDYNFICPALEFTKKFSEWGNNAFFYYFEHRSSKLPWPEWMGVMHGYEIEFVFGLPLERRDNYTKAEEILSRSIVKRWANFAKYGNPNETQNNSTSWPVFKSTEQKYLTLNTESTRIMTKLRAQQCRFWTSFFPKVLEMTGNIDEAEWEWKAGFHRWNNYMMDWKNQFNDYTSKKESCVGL

Usually inhibition stands for the change of the read-out against control, counted positive when it falls. `Cc1ccc2c(c1)c1c(n2CCc2ccc(C(F)(F)F)nc2)CCN(C)C1` [4-02]: the inhibition at 10 µM was 95% in test [1] and 97% at 5-HT6 Receptor.
The like results for `CN1CCc2c(c3cc(F)ccc3n2CCc2ccc(C(F)(F)F)nc2)C1` [4-03] were, in that order, 34% and 72%.
On to `CN1CCc2c(c3cc(Br)ccc3n2CCc2cncc(F)c2)C1` [compound 5], for which, in the test on C57BL/6 mice, the “effectiveness as memory stimulating agents relative to memantine” value is on record as “approximately 25 times”, the “object exploration / discrimination ratio compared with control” value is listed as “did not differ significantly from the control”, the “time exploring the object in a familiar localization” value is listed as “approximately 43.0%” and the “time exploring the object in a new localization” value is listed as 57+/−4.6%. Further, the inhibition at 10 µM in test [1] came to 96%. In addition, the inhibition at 10 µM at 5-HT6 Receptor came out at 103%.
For the compound `CN1CCc2c(c3cc(Cl)ccc3n2CCc2cncc(F)c2)C1` [compound 4], the results for the inhibition at 10 µM (in test [1]; at 5-HT6 Receptor) were 91% and 103%, respectively.
For the compound `CN1CCc2c(c3cc(C(F)(F)F)ccc3n2CCc2cncc(F)c2)C1` [compound 9], the inhibition at 10 µM in test [1] amounted to 95%; at 5-HT6 Receptor, 103%.
The like results for `CCN1CCc2c(c3cc(C)ccc3n2CCc2cncc(F)c2)C1` [compound 12] were, in that order, 89% and 101%.
As a reminder, the Ki is the dissociation constant of the complex between target and ligand, obtained from inhibition or displacement. On to `CC12CC3CC(C)(C1)CC(N)(C3)C2` [memantine], for which the Ki on NMDA receptor was 0.5 µM.
Regarding `CN1CCc2c(c3ccccc3n2CCc2ccc(C(F)(F)F)nc2)C1` [4-01], the results for the inhibition at 10 µM (in test [1]; at 5-HT6 Receptor) were 65% and 67%, respectively.
The like results for `CCN1CCc2c(c3cc(F)ccc3n2CCc2cncc(F)c2)C1` [compound 14] were, in that order, 53% and 88%.
The like results for `COc1ccc2c(c1)c1c(n2CCc2cncc(F)c2)CCN(C)C1` [compound 6] were, in that order, 99% and 96%.
As to `CN1CCc2c(c3cc(F)cc(F)c3n2CCc2cncc(F)c2)C1` [compound 8], in the test on C57BL/6 mice, the “effectiveness as memory stimulating agents relative to memantine” value is “approximately 25 times”, the “object exploration / discrimination ratio compared with control” value is reported as “not different from that of the control mice”, the “time exploring the object in a familiar localization” value is reported as 39.2+/−6.9% and the “time exploring the object in a new localization” value is recorded as 60.8+/−6.9%. In addition, in test [1], the inhibition at 10 µM was 31%. At 5-HT6 Receptor, the inhibition at 10 µM was determined as 91%.
On to `CN1CCc2c(c3cc(OC(F)(F)F)ccc3n2CCc2cncc(F)c2)C1` [compound 10], for which the inhibition at 10 µM is 100% in test [1] and 95% at 5-HT6 Receptor.
Consider `CN1CCc2c(c3cc(Cl)ccc3n2CCc2ccc(C(F)(F)F)nc2)C1` [4-04], for which the inhibition at 10 µM in test [1] is 97%; on 5-HT6 Receptor it was 100%.
The like results for `CN1CCc2c(c3cc(F)cc(F)c3n2CCc2ccc(C(F)(F)F)nc2)C1` [4-07] were, in that order, 20% and 79%.
In the case of `CC(=O)NCCc1c[nH]c2ccc(O)cc12` [N-acetylserotonin], the “prevention of neurotoxin-induced opening of mitochondrial pores” value in test [2] is given as “prevented”.
As to `Cc1ccc2c(c1)c1c(n2CCc2cncc(F)c2)CCN(C)C1` [compound 2], the inhibition at 10 µM came to 87% in test [1] and 102% at 5-HT6 Receptor.
As to `CCN1CCc2c(c3ccccc3n2CCc2cncc(F)c2)C1` [compound 11], the inhibition at 10 µM in test [1] was determined as 66%; on 5-HT6 Receptor, 77%.
`Nc1c2c(nc3ccccc13)CCCC2` [tacrine]: the “prevention of neurotoxin-induced opening of mitochondrial pores” value in test [2] is given as “prevented”.
As for `CN1CCc2c(c3cc(F)ccc3n2CCc2cncc(F)c2)C1` [compound 3], the inhibition at 10 µM amounted to 58% in test [1] and 99% on 5-HT6 Receptor.
The like results for `CN1CCc2c(c3ccccc3n2CCc2cncc(F)c2)C1` [compound 1] were, in that order, 75% and 90%.
For `COc1ccc2c(c1)c1c(n2CCc2ccc(C(F)(F)F)nc2)CCN(C)C1` [I. 4-06], the values for the inhibition at 10 µM (in test [1]; at 5-HT6 Receptor) were 99% and 72%, respectively.
The like results for `CCN1CCc2c(c3cc(Cl)ccc3n2CCc2cncc(F)c2)C1` [compound 15] were, in that order, 94% and 99%.
The like results for `CCN1CCc2c(c3cc(Cl)ccc3n2CCc2ccc(C(F)(F)F)nc2)C1` [4-08] were, in that order, 100% and 77%.

(Values after patent publication US7935823B2 (priority 2007, dated 2011).)
